Measurements taken from patent publication US8846569B2, “Pesticidal bis-organosulfur compounds” (Merial Limited, priority 2009, dated 2014).

Tests used:
Assay type in all cases: in vivo
[1] = test system: Plutella xylostella; assay: Diamond back moth (Plutella xylostella) stomach poison leaf dip test; conditions: for activity in [%]: 10 ppm, scale 0% no biological activity to 100% total control
Method: The test solution is prepared at the day of use.
Leaves of Chinese cabbage are dipped in test solution and air-dried. Treated leaves are placed in petri dished lined with moist filter paper. Mortality is recorded 24, 72, and 120 hours after treatment.
The biological tests were conducted as described above.

[2] = test system: Aedes aegypti; assay: Aedes aegypti neonate larvae motility assay; conditions: larval motility, dose response
Method: Compounds formulated in 100% DMSO are tested in microtiter plates containing 180 ul 1× Luria Broth media and 10 neonate A. aegypti larvae. The efficacy of a compound is determined based on the motility of the larvae as compared to average motility of control wells containing DMSO only. A dose response assay is conducted with compounds with >80% reduction in motility in the primary assay to determine an EC50 value. Selected compounds are advanced to insecticide secondary assays.

[3] = test system: Heliothis virescens; assay: Tobacco budworm (Heliothis virescens) diet/egg test
Method: For evaluating control of tobacco budworm (Heliothis virescens) the test unit consisted of 96-well-microtiter plates containing an insect diet and 15-25 H. virescens eggs.
The compounds were formulated using a solution containing 75% v/v water and 25% v/v DMSO. Different concentrations of formulated compounds were sprayed onto the insect diet at 10 μl, using a custom built micro atomizer, at two replications.
(§1) After application, microtiter plates were incubated at about 28±1° C. and about 80±5% relative humidity for 5 days. Egg and larval mortality was then visually assessed.
The biological activity shown tables under CB.1 and CB.2 was evaluated on scale range from 0% as showing no biological activity to 100% as having total control. The biological tests were conducted as described above.

[4] = test system: Ceratitis capitata; assay: Mediterranean fruitfly (Ceratitis capitata) diet/egg test; conditions: 120 h, 2500 ppm, egg and larval mortality, 5 days, read-out: mortality in comparison with untreated controls
Method: For evaluating control of Mediterranean fruitfly (Ceratitis capitata) the test unit consisted of microtiter plates containing an insect diet and 50-80 C. capitata eggs.
The compounds were formulated using a solution containing 75% v/v water and 25% v/v DMSO. Different concentrations of formulated compounds were sprayed onto the insect diet at 5 nl, using a custom built micro atomizer, at two replications.
as §1

[5] = test system: Myzus persicae; assay: Green peach aphid (Myzus persicae) artificial diet test; conditions: 72 h, 2500 ppm, adult aphids on treated artificial diet, 3 days, read-out: mortality in comparison with untreated controls
Description: For evaluating control of green peach aphid (Myzus persicae) the test unit consisted of 96-well-microtiter plates containing liquid artificial diet under an artificial membrane.
The compounds were formulated using a solution containing 75% v/v water and 25% v/v DMSO. Different concentrations of formulated compounds were pipetted into the aphid diet, using a custom built pipetter, at two replications.
After application, 5-8 adult aphids were placed on the artificial membrane inside the microtiter plate wells. The aphids were then allowed to suck on the treated aphid diet and incubated at about 23±1° C. and about 50±5% relative humidity for 3 days. Aphid mortality and fecundity was then visually assessed.

[6] = test system: Anthonomus grandis; assay: Boll weevil (Anthonomus grandis) diet/egg test; conditions: 120 h, 2500 ppm, egg and larval mortality, 5 days, read-out: mortality in comparison with untreated controls
Method: For evaluating control of boll weevil (Anthonomus grandis) the test unit consisted of 24-well-microtiter plates containing an insect diet and 20-30 A. grandis eggs.
The compounds were formulated using a solution containing 75% v/v water and 25% v/v DMSO. Different concentrations of formulated compounds were sprayed onto the insect diet at 20 μl, using a custom built micro atomizer, at two replications.
After application, microtiter plates were incubated at about 23±1° C. and about 50±5% relative humidity for 5 days. Egg and larval mortality was then visually assessed.

[7] = test system: Megoura viciae; assay: Vetch aphid (Megoura viciae) leaf disk test; conditions: foliar, 120 h, 2500 ppm, adult aphids on sprayed broad bean leaf disks, 5 days, read-out: mortality in comparison with untreated controls
Method: For evaluating control of vetch aphid (Megoura viciae) through contact or systemic means the test unit consisted of 24-well-microtiter plates containing broad bean leaf disks.
The compounds were formulated using a solution containing 75% v/v water and 25% v/v DMSO. Different concentrations of formulated compounds were sprayed onto the leaf disks at 2.5 μl, using a custom built micro atomizer, at two replications.
After application, the leaf disks were air-dried and 5-8 adult aphids placed on the leaf disks inside the microtiter plate wells. The aphids were then allowed to suck on the treated leaf disks and incubated at about 23±1° C. and about 50±5% relative humidity for 5 days. Aphid mortality and fecundity was then visually assessed.

Structure (SMILES)	activity in [%] [1] [%]	mortality at 500 ppm ([1]; Plutella xylostella, foliar, 500 ppm, dipped Chinese cabbage leaves, stomach poison, read-out: mortality in comparison with untreated controls) [%]	EC50 [2] [µg/mL]	activity in [%] ([3]; 800 ppm, scale 0% no biological activity to 100% total control)	mortality at 2500 ppm ([3]; Heliothis virescens, 120 h, 2500 ppm, egg and larval mortality, 5 days, read-out: mortality in comparison with untreated controls) [%]	mortality at 2500 ppm [4] [%]	mortality at 2500 ppm [5] [%]	mortality at 2500 ppm [6] [%]	mortality at 2500 ppm [7] [%]
CC(C#N)(CCC(F)(F)F)S(=O)(=O)CCC(F)(F)C(F)(F)F (stereo not shown) [CE. 2, reference compound]	0	–	–	–	–	–	–	–	–
N#CC(CCSC(F)(F)F)S(=O)(=O)CCC(F)(F)C(F)(F)F (stereo not shown) [II-1, 2-(3,3,4,4,4-Pentafluoro-butane-1-sulfonyl)-4-trifluoromethylsulfanyl-butyronitrile]	–	> 90	< 5	100	> 90	> 90	> 90	> 90	> 90
CC(C#N)(CCSC(F)(F)F)S(=O)(=O)CCC(F)(F)C(F)(F)F (stereo not shown) [II-2, 2-Methyl-2-(3,3,4,4,4-pentafluoro-butane-1-sulfonyl)-4-trifluoromethyl-sulfanyl-butyronitrile]	100	–	–	–	–	–	–	–	–
